# Measured values as given in ChEMBL document CHEMBL1201862, “PubChem BioAssay data set” (2004).
#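 Following 48 hours of exposure in 96-well plates, responses at five concentrations were used to interpolate endpoints linearly. Abbreviation: GI50, concentration required for 50% inhibition of growth.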 The source made the active and inactive calls. Rule as the data show it: active = GI50 up to about 1.1 µM and inactive = higher.
# Columns and labels:
# Assay in all cases: NCI tumour cell line growth inhibition, 48 h
# [1] = test system: ACHN
# [2] = test system: CAKI-1
# [3] = test system: DLD-1
# [4] = test system: DMS-114
# [5] = test system: DMS-273
# [6] = test system: HL-60
# [7] = test system: HOP-18
# [8] = test system: K562
# [9] = test system: LOX IMVI
# [10] = test system: M19-MEL
# [11] = test system: NCI-H23
# [12] = test system: NCI-H460
# [13] = test system: SNB-78
# [14] = test system: TK-10
# [15] = test system: XF498
# [16] = test system: SF-539
# [17] = test system: SK-MEL-5
Structure (SMILES),GI50 [1],GI50 [2],GI50 [3],GI50 [4],GI50 [5],GI50 [6],GI50 [7],GI50 [8],GI50 [9],GI50 [10],GI50 [11],GI50 [12],GI50 [13],GI50 [14],GI50 [15],GI50 [16],GI50 [17]
O=C(Nc1cccc(C(F)(F)F)c1)C(=O)C(C(=O)c1ccc(Cl)c(Cl)c1)C1OC(=O)c2ccccc21 (centres undefined),53.2 µM (inactive),88.1 µM (inactive),41.9 µM (inactive),21.6 µM (inactive),33.9 µM (inactive),29.4 µM (inactive),17.5 µM (inactive),44 µM (inactive),27.3 µM (inactive),18.8 µM (inactive),27.4 µM (inactive),31.8 µM (inactive),32.4 µM (inactive),> 100 µM (inactive),> 100 µM (inactive),,
CC1C(O)C2(Oc3cc4c(c5c3[C@@H](CC5O)[C@H]2C)CCC2Cc3nc5c(nc3C[C@@]42C)CC2CCC3C4=C[C@H]6O[C@@]7(O[C@@](C)(CO)C[C@@H]7O)C(C)[C@@]6(O)[C@]4(C)[C@@H](O)CC3[C@]2(C)C5)OC1(C)C (some centres undefined),,0.148 µM (active),1.1 µM (active),0.104 µM (active),0.0304 µM (active),0.0644 µM (active),2.01 µM (inactive),0.098 µM (active),0.115 µM (active),0.863 µM (active),0.114 µM (active),0.0735 µM (active),0.0494 µM (active),,0.115 µM (active),0.078 µM (active),0.237 µM (active)
Nc1ccc2[nH]c3c(-c4ccccc4)nccc3c2c1,,,64.7 µM (inactive),37.6 µM (inactive),53.3 µM (inactive),12 µM (inactive),> 100 µM (inactive),24.4 µM (inactive),28.9 µM (inactive),64.6 µM (inactive),> 73.6 µM (inactive),11.3 µM (inactive),> 55 µM (inactive),,61.2 µM (inactive),71.6 µM (inactive),19.8 µM (inactive)
[N-]=[N+]=CC(=O)OCC(N)C(=O)O (centres undefined),,5.85 µM (inactive),0.344 µM (active),1.59 µM (inactive),0.245 µM (active),0.448 µM (active),625 µM (inactive),0.286 µM (active),0.205 µM (active),1.41 µM (inactive),1.04 µM (active),0.411 µM (active),586 µM (inactive),,5.96 µM (inactive),0.13 µM (active),0.847 µM (active)
Nc1ncnc2c1ncn2[C@@H]1O[C@H](COP(=O)(O)O)[C@@H](O)[C@@H]1O,,> 50 µM (inactive),> 31.6 µM (inactive),> 50 µM (inactive),> 50 µM (inactive),14.6 µM (inactive),> 50 µM (inactive),> 50 µM (inactive),> 50 µM (inactive),> 50 µM (inactive),> 50 µM (inactive),> 50 µM (inactive),> 50 µM (inactive),,> 34.4 µM (inactive),> 50 µM (inactive),> 50 µM (inactive)
CCCCC(C)C1CCC2(C)C=CC(=O)C(C)=C2C1O (centres undefined),,> 100 µM (inactive),> 100 µM (inactive),> 100 µM (inactive),> 100 µM (inactive),> 100 µM (inactive),> 100 µM (inactive),> 100 µM (inactive),> 100 µM (inactive),> 100 µM (inactive),> 100 µM (inactive),> 100 µM (inactive),> 100 µM (inactive),,> 100 µM (inactive),> 100 µM (inactive),> 100 µM (inactive)
